From US9975888B2, “Aryl linked imidazole and triazole derivatives and methods of use thereof for improving the pharmacokinetics of a drug” (MERCK SHARP & DOHME CORP., priority 2013, dated 2018)
Like-named read-outs stand apart in the source and are kept apart here.

Tests used:
Format in all cases: biochemical
CYP3A4 [1] = target: T1, CYP3A4 (Homo sapiens, UniProt P08684); assay: IC50 vs CYP3A by inhibition of lopinavir metabolism in human liver microsomes; parameters: 0.01 mg/mL protein human liver microsomes (BD Gentest); tissue BD Gentest; host or cells: human liver microsomes; settings: 1.5 μM lopinavir, 0.01 mg/mL human liver microsomes, 8 min at 37° C.; read-out: CYP IC50 (nM) 3A4 (LPV)
In short: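 Human liver microsomes (0.01 mg/mL) with 1.5 μM lopinavir, 1 mM NADPH, 3.3 mM MgCl2 in 100 mM potassium phosphate pH 7.4, 8 min at 37 °C, six compound concentrations. Summed M2/M3/M4 hydroxy metabolites quantified by LC/MS/MS against tolbutamide; % inhibition normalised between no-inhibitor and 5 μM ketoconazole controls, IC50 by non-linear regression.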
Target sequence in this assay (P08684 2-503): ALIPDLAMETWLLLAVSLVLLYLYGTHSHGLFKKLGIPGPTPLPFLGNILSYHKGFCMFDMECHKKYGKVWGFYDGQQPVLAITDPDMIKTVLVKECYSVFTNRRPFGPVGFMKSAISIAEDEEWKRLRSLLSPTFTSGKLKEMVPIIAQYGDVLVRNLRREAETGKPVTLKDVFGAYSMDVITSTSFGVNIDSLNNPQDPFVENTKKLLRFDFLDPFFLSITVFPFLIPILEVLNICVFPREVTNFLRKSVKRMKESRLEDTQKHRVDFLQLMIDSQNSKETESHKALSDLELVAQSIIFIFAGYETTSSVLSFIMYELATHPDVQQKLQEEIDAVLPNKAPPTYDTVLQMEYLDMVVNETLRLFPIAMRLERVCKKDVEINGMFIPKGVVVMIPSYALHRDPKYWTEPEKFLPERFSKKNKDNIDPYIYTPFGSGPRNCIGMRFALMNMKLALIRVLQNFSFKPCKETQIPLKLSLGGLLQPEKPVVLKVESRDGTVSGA

CYP2D6 = target: T2, CYP2D6 (Homo sapiens, UniProt P10635); assay: Cocktail assay for CYPs, dextromethorphan O-demethylation (CYP2D6), human liver microsomes; settings: 5 μM dextromethorphan, 0.1 mg/mL human liver microsomes, 10 min at 37° C.; read-out: CYP IC50 (nM) 2D6
T2 construct: 0.1 mg/mL protein human liver microsomes (BD Gentest); tissue BD Gentest; host or cells: human liver microsomes
In short: (§1)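 Pooled human liver microsomes (0.1 mg/mL) with a probe cocktail of 10 μM phenacetin, 5 μM dextromethorphan and 2 μM midazolam plus NADPH, pH 7.4, 10 min at 37° C. Each metabolite was quantified by LC/MS/MS against a tolbutamide internal standard. IC50 came from % inhibition at 6 concentrations (e.g. 0.0032–10 μM) by non-linear regression.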

CYP2C19 = target: T3, CYP2C19 (Homo sapiens, UniProt P33261); assay: Cocktail assay for CYPs, mephenytoin 4′-hydroxylation (CYP2C19), human liver microsomes; settings: 0.1 mg/mL human liver microsomes, 10 min at 37° C.
T3 construct: 0.1 mg/mL protein human liver microsomes (BD Gentest); tissue BD Gentest; host or cells: human liver microsomes
In short: (§2)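 Pooled human liver microsomes (0.1 mg/mL) with probe cocktail incl. 5 μM diclofenac (CYP2C9) and 30 μM mephenytoin (CYP2C19), 1 mM NADPH, pH 7.4 phosphate buffer, 10 min at 37° C. Metabolites quantified by LC/MS/MS against internal standard; % inhibition versus no-inhibitor control, IC50 by non-linear regression.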

CYP1A2 = target: T4, CYP1A2 (Homo sapiens, UniProt P05177); assay: Cocktail assay for CYPs, phenacetin O-deethylation (CYP1A2), human liver microsomes; settings: 10 μM phenacetin, 0.1 mg/mL human liver microsomes, 10 min at 37° C.; read-out: CYP IC50 (nM) 1A2
T4 construct: 0.1 mg/mL protein human liver microsomes (BD Gentest); tissue BD Gentest; host or cells: human liver microsomes
T4 sequence (P05177 1-516): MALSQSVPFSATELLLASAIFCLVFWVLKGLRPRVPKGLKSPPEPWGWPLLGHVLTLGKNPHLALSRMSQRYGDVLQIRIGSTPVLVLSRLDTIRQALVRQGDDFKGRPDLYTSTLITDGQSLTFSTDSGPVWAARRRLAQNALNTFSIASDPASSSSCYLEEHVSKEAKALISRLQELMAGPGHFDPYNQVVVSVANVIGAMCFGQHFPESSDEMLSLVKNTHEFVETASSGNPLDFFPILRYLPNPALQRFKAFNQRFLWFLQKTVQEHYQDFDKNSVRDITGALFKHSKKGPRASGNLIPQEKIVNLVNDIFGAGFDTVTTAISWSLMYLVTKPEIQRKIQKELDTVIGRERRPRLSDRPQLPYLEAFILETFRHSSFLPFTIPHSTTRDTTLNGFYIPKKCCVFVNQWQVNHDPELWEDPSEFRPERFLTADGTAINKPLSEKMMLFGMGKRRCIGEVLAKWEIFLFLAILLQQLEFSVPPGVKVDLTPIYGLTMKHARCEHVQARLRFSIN
In short: as §1

CYP2C9 = target: T5, CYP2C9 (Homo sapiens, UniProt P11712); assay: Cocktail assay for CYPs, diclofenac 4′-hydroxylation (CYP2C9), human liver microsomes; settings: 0.1 mg/mL human liver microsomes, 10 min at 37° C.
T5 construct: 0.1 mg/mL protein human liver microsomes (BD Gentest); tissue BD Gentest; host or cells: human liver microsomes
In short: as §2

CYP3A4 [2] = target: T1, CYP3A4; assay: Cocktail assay for CYPs, midazolam 1′-hydroxylation (CYP3A4), human liver microsomes; parameters: 0.1 mg/mL protein human liver microsomes (BD Gentest); tissue BD Gentest; host or cells: human liver microsomes; settings: 2 μM midazolam, 0.1 mg/mL human liver microsomes, 10 min at 37° C.; read-out: CYP IC50 (nM) 3A4 (MDZ)
In short: as §1
Target sequence in this assay (P08684 whole entry): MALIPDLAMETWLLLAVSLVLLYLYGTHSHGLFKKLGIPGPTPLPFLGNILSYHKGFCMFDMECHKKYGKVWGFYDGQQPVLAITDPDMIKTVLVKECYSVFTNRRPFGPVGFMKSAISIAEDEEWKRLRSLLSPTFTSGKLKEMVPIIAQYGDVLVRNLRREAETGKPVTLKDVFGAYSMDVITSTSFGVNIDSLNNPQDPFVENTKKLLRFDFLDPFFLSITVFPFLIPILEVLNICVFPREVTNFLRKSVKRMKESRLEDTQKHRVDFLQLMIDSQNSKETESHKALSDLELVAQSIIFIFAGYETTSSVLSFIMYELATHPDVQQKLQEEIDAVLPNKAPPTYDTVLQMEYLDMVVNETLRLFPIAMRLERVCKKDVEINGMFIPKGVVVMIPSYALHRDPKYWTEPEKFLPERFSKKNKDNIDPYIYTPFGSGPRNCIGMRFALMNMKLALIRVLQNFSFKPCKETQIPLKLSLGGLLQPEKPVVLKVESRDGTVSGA

[3] = 30 μM mephenytoin, read-out: CYP IC50 (nM) 2C19
[4] = 5 μM diclofenac, read-out: CYP IC50 (nM) 2C9
[5] = CYP IC50 (nM) 2C19, 30 μM mephenytoin
[6] = CYP IC50 (nM) 2C9, 5 μM diclofenac

T3 sequence (P33261 whole entry): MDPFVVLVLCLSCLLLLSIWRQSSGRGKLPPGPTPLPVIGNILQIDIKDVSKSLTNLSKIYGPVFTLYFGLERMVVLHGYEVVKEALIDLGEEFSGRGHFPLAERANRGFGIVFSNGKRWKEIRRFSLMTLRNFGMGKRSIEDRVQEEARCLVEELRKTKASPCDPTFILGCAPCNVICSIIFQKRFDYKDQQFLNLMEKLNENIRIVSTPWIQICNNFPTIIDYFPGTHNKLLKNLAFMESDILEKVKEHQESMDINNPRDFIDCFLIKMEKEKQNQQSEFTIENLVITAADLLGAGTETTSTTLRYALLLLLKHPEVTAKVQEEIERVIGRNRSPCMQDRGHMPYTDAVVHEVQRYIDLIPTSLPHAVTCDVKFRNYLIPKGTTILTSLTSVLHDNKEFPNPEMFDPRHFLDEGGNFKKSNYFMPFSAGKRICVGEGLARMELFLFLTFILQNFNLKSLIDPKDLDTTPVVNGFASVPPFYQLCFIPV
T2 sequence (P10635 whole entry): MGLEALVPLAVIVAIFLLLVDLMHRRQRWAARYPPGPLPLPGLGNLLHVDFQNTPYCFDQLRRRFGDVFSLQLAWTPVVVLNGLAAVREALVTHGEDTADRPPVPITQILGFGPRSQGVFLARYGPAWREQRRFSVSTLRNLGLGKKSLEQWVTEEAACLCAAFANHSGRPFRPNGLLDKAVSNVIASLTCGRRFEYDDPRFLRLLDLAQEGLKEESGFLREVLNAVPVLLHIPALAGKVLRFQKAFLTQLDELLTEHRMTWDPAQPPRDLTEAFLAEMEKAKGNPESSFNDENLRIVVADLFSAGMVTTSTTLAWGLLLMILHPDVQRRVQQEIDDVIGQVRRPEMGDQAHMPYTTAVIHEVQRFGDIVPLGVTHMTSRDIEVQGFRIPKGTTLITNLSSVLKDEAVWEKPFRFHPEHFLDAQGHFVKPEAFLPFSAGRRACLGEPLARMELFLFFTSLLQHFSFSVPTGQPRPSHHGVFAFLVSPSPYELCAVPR
T5 sequence (P11712 whole entry): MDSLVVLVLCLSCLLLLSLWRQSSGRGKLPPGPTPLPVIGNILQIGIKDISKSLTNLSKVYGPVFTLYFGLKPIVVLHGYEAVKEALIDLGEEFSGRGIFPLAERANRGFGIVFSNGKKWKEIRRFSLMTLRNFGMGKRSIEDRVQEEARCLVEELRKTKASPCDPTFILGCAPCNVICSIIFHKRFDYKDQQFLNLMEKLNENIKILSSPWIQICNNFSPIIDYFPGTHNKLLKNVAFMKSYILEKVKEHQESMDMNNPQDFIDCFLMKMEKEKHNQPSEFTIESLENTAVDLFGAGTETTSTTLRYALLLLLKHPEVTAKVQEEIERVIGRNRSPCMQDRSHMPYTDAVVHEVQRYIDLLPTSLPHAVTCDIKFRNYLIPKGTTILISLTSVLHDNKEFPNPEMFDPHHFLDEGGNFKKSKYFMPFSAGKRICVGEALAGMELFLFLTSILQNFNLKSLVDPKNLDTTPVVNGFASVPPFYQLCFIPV

SMILES	IC50 (CYP3A4 [1])	IC50 (CYP2D6)	IC50 (CYP2C19; [3])	IC50 (CYP1A2)	IC50 (CYP2C9; [4])	IC50 (CYP3A4 [2])	IC50 (CYP2C19; [5])	IC50 (CYP2C9; [6])
CC(=O)Nc1ncc(S(=O)(=O)N2CCc3cc(-c4cncn4CCc4ccc(F)cc4)ccc3C2)s1 [Compound 1, N-(5-((6-(1-(4-fluorophenethyl)-1H-imidazol-5-yl)-3,4-dihydroisoquinolin-2(1H)-yl)sulfonyl)thiazol-2-yl)acetamide]	2.3 nM	765 nM	44 nM	1450 nM	10 nM	11 nM		
C[C@H](c1ccc(F)cc1)n1cncc1-c1ccc2c(c1)CN(S(=O)(=O)c1cnc(N)s1)CC2 [Compound 2, (R)-5-((7-(1-(1-(4-fluorophenyl)ethyl)-1H-imidazol-5-yl)-3,4-dihydroisoquinolin-2(1H)-yl)sulfonyl)thiazol-2-amine]	17 nM	288 nM	121 nM	2610 nM	505 nM	39 nM		
CC(NS(=O)(=O)c1cnc(N2CCN(C)CC2)s1)c1ccc(-c2cncn2CCc2ccc(F)cc2)cc1 (stereo not drawn) [Compound 3, N-(1-(4-(1-(4-fluorophenethyl)-1H-imidazol-5-yl)phenyl)ethyl)-2-(4-methylpiperazin-1-yl)thiazole-5-sulfonamide]	14 nM	2530 nM	> 10000 nM	> 10000 nM	4300 nM	22 nM		
CC(c1ccccc1-c1cncn1CCc1ccc(F)cc1)N(C)S(=O)(=O)c1cnc(N2CCN(C)CC2)s1 (stereo not drawn) [Compound 4, N-(1-(2-(1-(4-fluorophenethyl)-1H-imidazol-5-yl)phenyl)ethyl)-N-methyl-2-(4-methylpiperazin-1-yl)thiazole-5-sulfonamide]	9 nM	5110 nM	6700 nM	> 10000 nM	2200 nM	12 nM		
CN1CCN(c2ncc(S(=O)(=O)NC(c3ccccc3)c3ccccc3-c3cncn3CCc3ccc(F)cc3)s2)CC1 (stereo not drawn) [Compound 5, N-((2-(1-(4-fluorophenethyl)-1H-imidazol-5-yl)phenyl) (phenyl)methyl)-2-(4-methylpiperazin-1-yl)thiazole-5-sulfonamide]	80 nM	> 10000 nM	> 10000 nM	> 10000 nM	> 10000 nM	65 nM		
C[C@@H](NS(=O)(=O)c1cnc(N2CCN3C[C@H](O)C[C@H]3C2)s1)c1ccccc1-c1cncn1CCc1ccc(F)cc1 [Compound 6a, N-((R)-1-(2-(1-(4-fluorophenethyl)-1H-imidazol-5-yl)phenyl)ethyl)-2-((7R,8aS)-7-hydroxy-hexahydro-pyrrolo[1,2-a]pyrazin-2(1H)-yl)thiazole-5-sulfonamide]	8.6 nM	2540 nM		> 10000 nM		7.5 nM	8700 nM	4550 nM
C[C@H](NS(=O)(=O)c1cnc(N2CCN3C[C@H](O)C[C@H]3C2)s1)c1ccccc1-c1cncn1CCc1ccc(F)cc1 [Compound 6b, N-((S)-1-(2-(1-(4-fluorophenethyl)-1H-imidazol-5-yl)phenyl)ethyl)-2-((7R,8aS)-7-hydroxy-hexahydro-pyrrolo[1,2-a]pyrazin-2(1H)-yl)thiazole-5-sulfonamide]	40.3 nM	3500 nM		> 10000 nM		30 nM	> 10000 nM	5450 nM
CC(=O)Nc1ncc(S(=O)(=O)NC(C)(C)c2ccccc2-c2cncn2CCc2ccc(F)cc2)s1 [Compound 7, N-(5-(N-(2-(2-(1-(4-fluorophenethyl)-1H-imidazol-5-yl)phenyl)propan-2-yl)sulfamoyl)thia-zol-2-yl)acetamide]	10.6 nM	2880 nM	3180 nM	6070 nM	5990 nM	22.9 nM		
CC(=O)Nc1ncc(S(=O)(=O)NC2(c3ccc(-c4cncn4[C@H](C)c4ccc(F)cc4)cc3)CC2)s1 [Compound 10, (R)—N-(5-(N-(1-(4-(1-(1-(4-fluorophenyl)ethyl)-1H-imidazol-5-yl)phenyl)cyclopropyl)sulfamoyl)thiazol-2-yl)acetamide]	> 100 nM	9200 nM	> 10000 nM	8480 nM	> 10000 nM	192 nM		

More lines, main results first:

IC50 (CYP3A4 [1])	IC50 (CYP2D6)	IC50 (CYP2C19; [3])	IC50 (CYP1A2)	IC50 (CYP2C9; [4])	IC50 (CYP3A4 [2])	SMILES	IC50 (CYP2C19; [5])	IC50 (CYP2C9; [6])
0.84 nM	139 nM	219 nM	1080 nM	61.6 nM	6.63 nM	O=C(NCc1ccc(S(=O)(=O)N2CCCC2c2cccc(-c3cncn3CCc3ccc(F)cc3)c2)s1)c1ccccc1 (single isomer, unassigned) [Compound 55a, (R or S)-N-((5-((2-(3-(1-(4-fluorophenethyl)-1H-imidazol-5-yl)phenyl)pyrrolidin-1-yl)sulfonyl)thiophen-2-yl)methyl) benzamide]		
0.92 nM	163 nM	56 nM	158 nM	63.8 nM	5.1 nM	O=C(NCc1ccc(S(=O)(=O)N2CCCC2c2cccc(-c3cncn3CCc3ccc(F)cc3)c2)s1)c1ccccc1 (single isomer, unassigned) [Compound 55b, (R or S)-N-((5-((2-(3-(1-(4-fluorophenethyl)-1H-imidazol-5-yl)phenyl)pyrrolidin-1-yl)sulfonyl)thiophen-2-yl)methyl) benzamide]		
3.7 nM	2200 nM	331 nM	367 nM	365 nM	10.4 nM	O=S(=O)(c1ccc(N2CCC(O)CC2)nc1)N1CCCC1c1cccc(-c2cncn2CCc2ccc(F)cc2)c1 (single isomer, unassigned) [Compound 57a, (R or S)-1-(5-((2-(3-(1-(4-fluorophenethyl)-1H-imidazol-5-yl)phenyl)pyrrolidin-1-yl)sulfonyl)pyridin-2-yl) piperidin-4-ol]		
1.4 nM	2230 nM	393 nM	190 nM	209 nM	4.52 nM	O=S(=O)(c1ccc(N2CCC(O)CC2)nc1)N1CCCC1c1cccc(-c2cncn2CCc2ccc(F)cc2)c1 (single isomer, unassigned) [Compound 57b, (R or S)-1-(5-((2-(3-(1-(4-fluorophenethyl)-1H-imidazol-5-yl)phenyl)pyrrolidin-1-yl)sulfonyl)pyridin-2-yl) piperidin-4-ol]		
1.9 nM	1200 nM	281 nM	8560 nM	565 nM	4.4 nM	CC(=O)Nc1ncc(S(=O)(=O)N2CCCC2c2ccc(-c3cncn3CCc3ccc(F)cc3)cc2)s1 (stereo not drawn) [Compound 8, N-(5-((2-(4-(1-(4-fluorophenethyl)-1H-imidazol-5-yl)phenyl)pyrrolidin-1-yl)sulfonyl)thiazol-2-yl)acetamide]		
2.4 nM	2100 nM	148 nM	> 10000 nM	684 nM	9 nM	CN1CCN(c2ncc(S(=O)(=O)N3CCCC3c3ccc(-c4cncn4CCc4ccc(F)cc4)cc3)s2)CC1 (stereo not drawn) [Compound 9, 5-((2-(4-(1-(4-fluorophenethyl)-1H-imidazol-5-yl)phenyl)pyrrolidin-1-yl)sulfonyl)-2-(4-methylpiperazin-1-yl)thiazole]		
